Laboratory results: US5565616A (priority 1994, dated 1996)
Like-named read-outs stand apart in the source and are kept apart here.

Legend:
[1] = Sample pH before SCWO, after five-minute reactor residence time and after reactor cool down; type: physicochemical
Method: Fourteen tests were conducted to determine the by-product distribution of DMMP during SCWO at different oxygen concentrations in the presence of additives. Test conditions and procedures were the same as described in Example 1. Additive concentrations were based on achieving a 1:1 molar ratio of Na^+ ions to DMMP. Based on an initial concentration of DMMP of 10,000 mg/L, the initial concentrations of each additive were 3,224 mg/L for NaOH, 4,271 mg/L for Na2 CO3 and 15.4 g/L for Na2 B4 O7 (as Na2 B4 O7.10H2 O).
The pH of each sample was measured within one hour of sample collection. The presence of the additive affected the pH of the sample collected after a five minute reactor residence time only slightly. Since the pH of the initial solution had increased upon addition of the additive, it was expected that the pH of the sample collected at supercritical conditions would also increase. However, the effect was only slightly obvious due most likely to the precipitation of the additives at supercritical conditions. After reactor cool down, the pH of samples collected after cool down increased in the presence of the additive. The pH increase which occurred between the sample collected after five minutes reactor residence time and after reactor cool down was a result of the dissolution of precipitated additive. It is believed that sodium hydroxide, sodium carbonate and sodium borate dissolved after reactor cool down and neutralized the acidic solution which was observed after the five minute reactor residence time.

[2] = From the text: Calculations are based on the reported first-order reaction kinetic model
[3] = cited from earlier work
[4] = cited from earlier work; for Pyridine Conversion: 27.6 MPa
[5] = first-order oxidation, 24.6 MPa, 530-700 °C

## O.O.O.O.O.O.O.O.O.O.[Na+].[Na+].[O-]B1OB2OB([O-])OB(O1)O2 [Na2 B4 O7, sodium borate]
[1]; hydrolysis
  pH, 5 Min. Reactor Resid. Time: 2.8
  pH, After Reactor Cool Down: 7.0
  pH, Initial: 9
[1]; partial oxidation
  pH, 5 Min. Reactor Resid. Time: 3.2
  pH, After Reactor Cool Down: 7.3
  pH, Initial: 9

## N [ammonia]
[2]; 400 °C
  Reactor Residence Time Required to Achieve 9% Conversion: 774 min
  Reactor Residence Time Required to Achieve 90% Conversion: 18888 min
  Reactor Residence Time Required to Achieve 99% Conversion: 37775 min
  Reactor Residence Time Required to Achieve 99.9% Conversion: 56663 min
  Reactor Residence Time Required to Achieve 99.99% Conversion: 75551 min
[2]; 450 °C
  Reactor Residence Time Required to Achieve 9% Conversion: 111 min
  Reactor Residence Time Required to Achieve 90% Conversion: 2710 min
  Reactor Residence Time Required to Achieve 99% Conversion: 5421 min
  Reactor Residence Time Required to Achieve 99.9% Conversion: 8131 min
  Reactor Residence Time Required to Achieve 99.99% Conversion: 10842 min
[2]; 500 °C
  Reactor Residence Time Required to Achieve 9% Conversion: 20 min
  Reactor Residence Time Required to Achieve 90% Conversion: 500 min
  Reactor Residence Time Required to Achieve 99% Conversion: 1000 min
  Reactor Residence Time Required to Achieve 99.9% Conversion: 1500 min
  Reactor Residence Time Required to Achieve 99.99% Conversion: 2000 min
[2]; 550 °C
  Reactor Residence Time Required to Achieve 9% Conversion: 5 min
  Reactor Residence Time Required to Achieve 90% Conversion: 113 min
  Reactor Residence Time Required to Achieve 99% Conversion: 227 min
  Reactor Residence Time Required to Achieve 99.9% Conversion: 340 min
  Reactor Residence Time Required to Achieve 99.99% Conversion: 453 min
[2]; 600 °C
  Reactor Residence Time Required to Achieve 9% Conversion: 0.1 min
  Reactor Residence Time Required to Achieve 90% Conversion: 3 min
  Reactor Residence Time Required to Achieve 99% Conversion: 7 min
  Reactor Residence Time Required to Achieve 99.9% Conversion: 10 min
  Reactor Residence Time Required to Achieve 99.99% Conversion: 13 min
[2]; below 450 °C
  reactor residence time required to convert 10% ammonia: at least two hours
[3]; [5]
  activation energy: 37.5 kcal/mol
  pre-exponential factor: 3.16e+06 s⁻¹
[3]; supercritical water
  temperature at which oxidation rate becomes appreciable: greater than 550 °C

## c1ccncc1 [pyridine]
[4]; Test 513: 522 °C, 6.6 sec, 1990 mg/L, O2 0.024 mole/L
  Pyridine Conversion: 74%
[4]; Test 516: 499 °C, 7.1 sec, 1990 mg/L, O2 0.026 mole/L
  Pyridine Conversion: 66%
[4]; Test 524: 499 °C, 7.1 sec, 3050 mg/L, O2 0.031 mole/L
  Pyridine Conversion: 75%
[4]; Test 525: 475 °C, 7.8 sec, 1990 mg/L, O2 0.029 mole/L
  Pyridine Conversion: 25%
[4]; Test 529: 451 °C, 8.8 sec, 3050 mg/L, O2 0.038 mole/L
  Pyridine Conversion: 6%
[4]; Test 541: 522 °C, 6.6 sec, 3050 mg/L, O2 0.027 mole/L
  Pyridine Conversion: 94%
[4]; Test 542: 474 °C, 7.8 sec, 3050 mg/L, O2 0.035 mole/L
  Pyridine Conversion: 22%
[4]; Test 661: 527 °C, 3.8 sec, 3530 mg/L, O2 0.010 mole/L
  Pyridine Conversion: 55%
[4]; Test 668: 525 °C, 3.9 sec, 3530 mg/L, O2 0.014 mole/L
  Pyridine Conversion: 53%
[4]; Test 676: 527 °C, 3.8 sec, 3530 mg/L, O2 0.020 mole/L
  Pyridine Conversion: 68%
[4]; at 524 °C (Test No. 524)
  pyridine converted: 75%

## sodium hydroxide [NaOH]
[1]; hydrolysis
  pH, 5 Min. Reactor Resid. Time: 2.1
  pH, After Reactor Cool Down: 5.3
  pH, Initial: 12.3
[1]; oxidation
  pH, 5 Min. Reactor Resid. Time: 3.6
  pH, After Reactor Cool Down: 5.0
  pH, Initial: 12.3
[1]; partial oxidation
  pH, 5 Min. Reactor Resid. Time: 2.2
  pH, After Reactor Cool Down: 6.0
  pH, Initial: 12.3
